Test results reported in patent US6849435B2, “Use of VLCFAE for identifying herbicidally active compounds” (Bayer Aktiengesellschaft, priority 2000, dated 2005).
“Also recorded” adds a separate entry of the source.

Columns and labels:
[1] = test system: C18:1 fatty acid elongation; conditions: cited from earlier work
Arabidopsis thaliana = experiment: Herbicide treatment of Arabidopsis thaliana with flufenacet: generation of the fiddlehead phenotype; type: in vivo, Arabidopsis thaliana (ecotype Columbia Col-0)
Experimental: Herbicide Treatment of Arabidopsis thaliana With Flufenacet: Generation of the Fiddlehead Phenotype Arabidopsis seeds (ecotype Columbia Col-0), which were stored at 4° C., were sown in soil and cultivated at 22° C.±2° C. under long-day conditions (16 h light/8h dark). Plants 2 weeks old were sprayed with 250 g/ha and 50 g/ha flufenacet and cultivated further at 22° C.±2° C. under long-day conditions (16 h light/8h dark). […] These fusions are very similar to those in the “fiddlehead” mutants.

**Q.** For `CN(C)c1cnn(-c2ccccc2)c(=O)c1Cl` [BAS 13-338], which “inhibition of C18:1 fatty acid elongation” value [1] is on record?
**A.** Its value is “inhibit C18:1 fatty acid elongation”.

**Q.** With `CC(C)N(C(=O)COc1nnc(C(F)(F)F)s1)c1ccc(F)cc1` [flufenacet] as the compound, how does the “appearance of flowers after recovery” value (Arabidopsis thaliana; from day 18 after treatment with 250 g/ha and 50 g/ha) read?
**A.** Its value is “all the flowers appear normal again”.

**Q.** And the “fusion of the rosette leaves” value (Arabidopsis thaliana; in vivo)?
**A.** The value was “leads to fusion of the rosette leaves”.

**Q.** What about the “fiddlehead phenotype (fusion of flower organs)” value (Arabidopsis thaliana; plants 2 weeks old sprayed with 250 g/ha and 50 g/ha, between day 7 and day 11 after treatment) of the same compound?
**A.** Its value is “fiddlehead phenotype can be induced; also recorded: the flower organs fuse with the uppermost cauline leaves”.
